Test results: patent US9981909B2 (Janssen Pharmaceutica NV, priority 2008, dated 2018)
Counter-ions that a name gives are not always drawn.

Experiments:
rat 5-HT7 receptor = rat 5-HT7 receptor (Rattus norvegicus (Rat), UniProt P32305); experiment: r5-HT7 binding assay, competitive radioligand binding with [3H]5-CT
Summary of the method: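 Whole r5-HT7-transfected HEK-293 cells first received test compound for 10 min. They were then exposed to 100 nM 5-CT for 20 min before lysis and competitive immunoassay of cAMP. Affinity came from displacement of [3H]5-CT on membranes of the same recombinant line, expressed as Ki.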

human SERT = human SERT (Homo sapiens (Human), UniProt P31645); experiment: human SERT binding assay with [3H]-citalopram on HEK-293 membranes; settings: read-out: hSERT binding Ki
Sequence of human SERT (P31645 whole entry): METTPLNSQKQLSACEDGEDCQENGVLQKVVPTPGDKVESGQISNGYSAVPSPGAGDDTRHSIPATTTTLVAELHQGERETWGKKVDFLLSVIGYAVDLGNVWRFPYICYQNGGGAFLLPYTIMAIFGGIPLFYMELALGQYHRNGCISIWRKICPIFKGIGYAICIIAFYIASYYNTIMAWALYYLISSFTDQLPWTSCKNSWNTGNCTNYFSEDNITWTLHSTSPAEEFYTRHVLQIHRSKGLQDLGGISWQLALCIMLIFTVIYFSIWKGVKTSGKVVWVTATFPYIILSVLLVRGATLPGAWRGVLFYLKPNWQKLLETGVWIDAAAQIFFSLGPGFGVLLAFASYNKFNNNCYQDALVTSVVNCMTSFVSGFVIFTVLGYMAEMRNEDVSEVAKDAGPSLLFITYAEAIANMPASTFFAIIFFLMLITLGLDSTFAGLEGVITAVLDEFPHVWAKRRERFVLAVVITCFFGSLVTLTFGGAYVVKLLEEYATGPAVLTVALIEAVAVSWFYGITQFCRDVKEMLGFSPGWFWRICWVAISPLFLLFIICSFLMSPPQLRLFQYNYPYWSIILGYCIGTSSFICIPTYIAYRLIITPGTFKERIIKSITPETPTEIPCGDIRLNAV
Method: Receptor binding was performed using membrane fractions prepared from the HEK-293 cell line recombinantly expressing rat 5-HT7 receptors (NCBI accession NM_022938). Compound affinity for the rat 5-HT7 receptor subtype was evaluated by competitive radioligand binding assays using 5-carboxamido[^3H]tryptamine ([^3H]5-CT) (Amersham Biosciences, cat. 90000403) detection. HitHunter™ cAMP assays are in-vitro based competitive immunoassays. The assay was performed on the HEK-293 cell line stably transfected with r5-HT7 receptor. Cells were pre-incubated with test compounds for 10 minutes. For antagonist testing, the cells were then challenged with 100 nM 5-CT for 20 minutes. Cells were then lysed and cAMP measured according to manufacturers protocol (Amersham, cat. NET791250UC) or [^3H]mesulergine (Amersham, cat. TRK1041). The assay was performed on membranes prepared from HEK-293 cells stably transfected with h5-HT6. Following centrifugation, membranes were resuspended and incubated for 60 min at room temperature with 1.7 nM [^3H]LSD in the presence of increasing concentration of test compounds. Nonspecific binding was defined in the presence of 10 μM clozapine (Tocris, cat. TRK1068). Homogenized HEK-293 membranes expressing the human SERT were incubated in 50 mM Tris-HCl (pH 7.5), 120 mM NaCl, 5 mM KCl with [^3H]-citalopram (3 nM) with or without test compounds. Nonspecific binding was determined in the presence of 10 μM fluoxetine. Radioactivity readouts and Ki values were performed as previously described for r5-HT7. […] Compounds were assayed in their free form or as salts, as indicated in the Examples section above.

[1] = rat 5-HT7 receptor, HEK-293 membranes

Sequence of rat 5-HT7 receptor (P32305 1-435): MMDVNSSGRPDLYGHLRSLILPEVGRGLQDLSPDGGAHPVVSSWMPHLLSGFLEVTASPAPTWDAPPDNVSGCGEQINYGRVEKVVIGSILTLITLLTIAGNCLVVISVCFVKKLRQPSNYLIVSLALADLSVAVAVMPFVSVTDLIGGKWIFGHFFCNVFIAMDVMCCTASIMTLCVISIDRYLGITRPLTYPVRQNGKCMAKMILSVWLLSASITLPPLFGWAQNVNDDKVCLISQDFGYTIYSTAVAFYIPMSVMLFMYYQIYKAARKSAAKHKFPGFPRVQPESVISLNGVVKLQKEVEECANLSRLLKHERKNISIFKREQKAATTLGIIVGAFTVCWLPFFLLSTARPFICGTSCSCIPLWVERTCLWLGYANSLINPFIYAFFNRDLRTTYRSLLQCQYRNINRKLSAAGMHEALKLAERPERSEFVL

Row | SMILES | Ki (rat 5-HT7 receptor; [1]) [nM] | Ki (human SERT) [nM] | Ki (rat 5-HT7 receptor; rat 5-HT7, HEK-293 membranes) [nM]
1 | CC(Oc1ccc(Cl)cc1OC1CNC1)c1ccc(F)c(C(F)(F)F)c1 (racemic) [Example 117, (±)-3-[5-Chloro-2-[1-(4-fluoro-3-trifluoromethyl-phenyl)-ethoxy]-phenoxy]-azetidine] | 41 | 71 | –
2 | Cc1ccc2c(c1)CCC2Oc1ccc(Br)cc1OC1CNC1 (racemic) [Example 155, (±)-3-[5-Bromo-2-(5-methyl-indan-1-yloxy)-phenoxy]-azetidine] | 19 | 45 | –
3 | FC(F)(F)Oc1ccc(COc2ccc(Cl)cc2OC2CNC2)cc1 [Example 42, 3-[5-Chloro-2-(4-trifluoromethoxy-benzyloxy)-phenoxy]-azetidine] | 35 | 578 | –
4 | Clc1ccc(Oc2nc3ccccc3o2)c(OC2CNC2)c1 [Example 262, 2-[2-(Azetidin-3-yloxy)-4-chloro-phenoxy]-benzooxazole] | – | 112 | 31
5 | CC(Oc1ccc(Cl)cc1OC1CNC1)c1ccc(Cl)cc1 (racemic) [Example 123, (±)-3-[5-Chloro-2-[1-(4-chloro-phenyl)-ethoxy]-phenoxy]-azetidine] | 42 | 25 | –
6 | Clc1cnc(OCc2ccccc2)c(OC2CNC2)c1 [Example 196, 3-(Azetidin-3-yloxy)-2-benzyloxy-5-chloro-pyridine] | 359 | 53 | –
7 | Fc1ccc(COc2ccc(Cl)cc2OC2CNC2)cc1C(F)(F)F [Example 47, 3-[5-Chloro-2-(4-fluoro-3-trifluoromethyl-benzyloxy)-phenoxy]-azetidine] | 11 | 21 | –
8 | Clc1ccc(OCc2ccncc2)c(OC2CNC2)c1 [Example 53, 4-[2-(Azetidin-3-yloxy)-4-chloro-phenoxymethyl]-pyridine] | 260 | 464 | –
9 | Clc1ccc(OCc2csc(-c3cccs3)n2)c(OC2CNC2)c1 [Example 28, 4-[2-(Azetidin-3-yloxy)-4-chloro-phenoxymethyl]-2-thiophen-2-yl-thiazole] | 49 | 683 | –
10 | C[C@H]1[C@H](Oc2cc(Br)ccc2OCc2cccc(F)c2)CN1Cc1ccccc1 (relative stereo) [Example 221, trans-1-Benzyl-3-[5-bromo-2-(3-fluoro-benzyloxy)-phenoxy]-2-methyl-azetidine] | – | 5000 | 147
11 | CC(C)C1(Oc2cc(Br)ccc2OCc2cccc(Cl)c2)CNC1 [Example 214, 3-[5-Bromo-2-(3-chloro-benzyloxy)-phenoxy]-3-isopropyl-azetidine] | – | 1690 | 9000
12 | CC(C)(C)N1CC(Oc2cc(Cl)ccc2OCc2cccc(C(F)(F)F)c2)C1 [Example 230, 1-tert-Butyl-3-[5-chloro-2-(3-trifluoromethyl-benzyloxy)-phenoxy]-azetidine] | – | 1200 | 6
13 | C[C@@H]1[C@@H](Oc2ccc(Cl)cc2OC2CNC2)CN1Cc1ccccc1 (racemic) [Example 223, (±)-3-[5-Chloro-2-(trans-1-benzyl-2-methyl-azetidin-3-ol)-phenoxy]-azetidine] | – | 9000 | 145
14 | FCC(Oc1ccc(Br)cc1OC1CNC1)c1ccccc1 (stereo not shown) [Example 142, 3-[5-Bromo-2-(2-fluoro-1-phenyl-ethoxy)-phenoxy]-azetidine] | 91 | 613 | –
15 | Clc1ccc(OCc2ccc3ncsc3c2)c(OC2CNC2)c1 [Example 84, 6-[2-(Azetidin-3-yloxy)-4-chloro-phenoxymethyl]-benzothiazole] | 34 | 61 | –
16 | Fc1ccc(OCc2ccc(C(F)(F)F)o2)c(OC2CNC2)c1 [Example 208, 3-[5-Fluoro-2-(5-trifluoromethyl-furan-2-ylmethoxy)-phenoxy]-azetidine] | 365 | 303 | –
17 | Clc1ccc(OC2CC(c3ccccc3)C2)c(OC2CNC2)c1 (stereo not shown) [Example 228, 3-[5-Chloro-2-(3-phenyl-cyclobutoxy)-phenoxy]-azetidine] | – | 72 | 9
18 | CC(Oc1ccc(Cl)cc1OC1CNC1)c1ccc(F)cc1 (racemic) [Example 124, (±)-3-[5-Chloro-2-[1-(4-fluoro-phenyl)-ethoxy]-phenoxy]-azetidine] | 43 | 20 | –
19 | FC(COc1ccc(Cl)cc1OC1CNC1)c1ccccc1 (stereo not shown) [Example 187, 3-[5-Chloro-2-(2-fluoro-2-phenyl-ethoxy)-phenoxy]-azetidine] | 36 | 340 | –

Row | SMILES | Ki (rat 5-HT7 receptor; [1]) [nM] | Ki (human SERT) [nM] | Ki (rat 5-HT7 receptor; rat 5-HT7, HEK-293 membranes) [nM]
20 | Cc1nc(-c2cccc(COc3ccc(Cl)cc3OC3CNC3)c2)no1 [Example 31, 3-[3-[2-(Azetidin-3-yloxy)-4-chloro-phenoxymethyl]-phenyl]-5-methyl-[1,2,4]oxadiazole hydrochloride] | 100 | 90 | –
21 | CC1(Oc2cc(Br)ccc2OCc2cccc(Cl)c2)CNC1 [Example 212, 3-[5-Bromo-2-(3-chloro-benzyloxy)-phenoxy]-3-methyl-azetidine] | – | 41 | 53
22 | Clc1ccc(OCCOc2ccccc2)c(OC2CNC2)c1 [Example 171, 3-[5-Chloro-2-(2-phenoxy-ethoxy)-phenoxy]-azetidine] | 7 | 234 | –
23 | FC(F)(F)c1ccc(COc2ccc(Br)cc2OC2CCNCC2)o1 [Example 64, 4-[5-Bromo-2-(5-trifluoromethyl-furan-2-ylmethoxy)-phenoxy]-piperidine] | 17 | 43 | –
24 | CSc1cccc(COc2ccc(Cl)cc2OC2CNC2)c1 [Example 26, 3-[5-Chloro-2-(3-methylsulfanyl-benzyloxy)-phenoxy]-azetidine] | 25 | 13 | –
25 | C[C@H](Oc1ccc(Cl)cc1OC1CNC1)c1cccc(C(F)(F)F)c1 [Example 102, (S)-3-[5-Chloro-2-[1-(3-trifluoromethyl-phenyl)-ethoxy]-phenoxy]-azetidine trifluoroacetate] | 376 | 954 | –
26 | CC(Oc1ccc(Cl)cc1OC1CNC1)c1ccccc1 (racemic) [Example 145, (±)-3-[5-Chloro-2-(1-phenyl-ethoxy)-phenoxy]-azetidine] | 40 | 773 | –
27 | COc1cccc2c1CC(Oc1ccc(Cl)cc1OC1CNC1)C2 (stereo not shown) [Example 178, 3-[5-Chloro-2-(4-methoxy-indan-2-yloxy)-phenoxy]-azetidine] | 17 | 131 | –
28 | CS(=O)(=O)c1cccc(COc2ccc(Cl)cc2OC2CNC2)c1 [Example 27, 3-[5-Chloro-2-(3-methanesulfonyl-benzyloxy)-phenoxy]-azetidine] | 229 | 1680 | –
29 | FC1(F)Oc2ccc(COc3ccc(Cl)cc3OC3CNC3)cc2O1 [Example 86, 3-[5-Chloro-2-(2,2-difluoro-benzo[1,3]dioxol-5-ylmethoxy)-phenoxy]-azetidine] | 38 | 121 | –
30 | CC(Oc1ccc(Cl)cc1OC1CN(C)C1)c1cccc(C(F)(F)F)c1 (racemic) [Example 109, (±)-3-[5-Chloro-2-[1-(3-trifluoromethyl-phenyl)-ethoxy]-phenoxy]-1-methyl-azetidine] | 5 | 2900 | –
31 | Clc1ccc(OCC2CCc3ccccc3O2)c(OC2CNC2)c1 (stereo not shown) [Example 165, 3-[5-Chloro-2-(chroman-2-ylmethoxy)-phenoxy]-azetidine] | 16 | 95 | –
32 | FC(F)(F)c1ccc(COc2ccc(Br)cc2CC2CNC2)o1 [Example 232, 3-[5-Bromo-2-(5-trifluoromethyl-furan-2-ylmethoxy)-benzyl]-azetidine] | – | 1 | 3
33 | Clc1ccc(OCc2ccc3occc3c2)c(OC2CNC2)c1 [Example 83, 3-[2-(Benzofuran-5-ylmethoxy)-5-chloro-phenoxy]-azetidine] | 16 | 24 | –
34 | Clc1ccc(OCc2cccnc2)c(OC2CNC2)c1 [Example 52, 3-[2-(Azetidin-3-yloxy)-4-chloro-phenoxymethyl]-pyridine] | 110 | 89 | –
35 | CC(Oc1ccc(Br)cc1OC1CNC1)c1cccc(OC(F)(F)F)c1 (racemic) [Example 110, (±)-3-[5-Bromo-2-[1-(3-trifluoromethoxy-phenyl)-ethoxy]-phenoxy]-azetidine] | 90 | 554 | –
36 | CN1CC(Oc2cc(Cl)ccc2OCc2cc(CO)c(C(F)(F)F)o2)C1 [Example 77] | 153 | 5000 | –
37 | Clc1ccc(OCc2cc3ccccc3o2)c(OC2CNC2)c1 [Example 89, 3-[2-(Benzofuran-2-ylmethoxy)-5-chloro-phenoxy]-azetidine] | 25 | 242 | –
38 | CC(Oc1ccc(Cl)cc1OC1CCNCC1)c1cccc(Cl)c1 (racemic) [Example 136, (±)-4-[5-Chloro-2-[1-(3-chloro-phenyl)-ethoxy]-phenoxy]-piperidine] | 29 | 98 | –
